Assay results reported in patent US12590277B2, “High-throughput acoustofluidic fabrication of cell spheroids” (The Trustees of Indiana University, priority 2019, dated 2026).

Key:
Panc02 cells = experiment: MTT cytotoxicity assay, Panc02 monolayer culture; format: cell-based, murine
Procedure: (§1) The cytotoxic effect of the chemotherapeutic drug Gemcitabine (LC Laboratories, Woburn, Mass., USA) on Panc02 cell spheroids culture was compared to the cytotoxic effect on monolayer culture. For the cytotoxic assay, 1×10^4 cells suspended in complete medium were seeded in each well of a 96-well plate. Four (4)-day-old Panc02 spheroids were transferred to a new 96 ultra-low attachment well plate. The next day, the cells and spheroids were treated with different concentrations of Gemcitabine solution (0, 0.1, 1, 10, 25, 50, 100 μM) in sextuplicate wells. After incubating the cells with Gemcitabine for 48 h, 20 microliter (μl) of 3-(4,5-dimethylthiazol-2-yl)-2,5-diphenyltetrazolium bromide (MTT) solution (5 mg/ml) was added into each well, and the cells were incubated for 4 hours. […] Finally, absorbance was recorded at 570 nm using the Epoch™ microplate spectrophotometer (Bio-Tek Instruments, USA). […]
(§2) Parallel experiments were set with traditional 2D monolayer cell cultures to examine differential response of 2D and 3D cell cultures. Cell number and viability were measured using MTT assay after 2 days of Gemcitabine treatment. The IC50 value was calculated. […]

Panc02 cell spheroids = experiment: MTT cytotoxicity assay, Panc02 cell spheroids culture; format: cell-based, murine
Procedure: as §1, §2

Which results are given for `Nc1ccn([C@@H]2O[C@H](CO)[C@@H](O)C2(F)F)c(=O)n1` [Gemcitabine]?
response to the drug from regression curves, monolayer (Panc02 cells; 0-100 μM Gemcitabine, 48 h): dose-dependent response; IC50 (Panc02 cells; Mus musculus, Panc02, 2D monolayer culture, 48 h (2 days) Gemcitabine treatment): 9.99 ± 0.07 µM; response to the drug from regression curves, spheroids (Panc02 cell spheroids; 0-100 μM Gemcitabine, 48 h): dose-dependent response; IC50 (Panc02 cell spheroids; Mus musculus, 4-day-old acoustically assembled Panc02 3D spheroids, 48 h (2 days) Gemcitabine treatment): 18.38 ± 0.09 µM
